From article PMC5497837 (Journal of basic and clinical physiology and pharmacology, 2016)

Molecular target: CB1 cannabinoid receptor (CB1R) (Mus musculus, UniProt P47746)
Assay: inhibition of forskolin-activated cAMP accumulation in N18TG2 cells
Type: cell-based

Sequence of CB1 cannabinoid receptor (CB1R) (P47746 whole entry): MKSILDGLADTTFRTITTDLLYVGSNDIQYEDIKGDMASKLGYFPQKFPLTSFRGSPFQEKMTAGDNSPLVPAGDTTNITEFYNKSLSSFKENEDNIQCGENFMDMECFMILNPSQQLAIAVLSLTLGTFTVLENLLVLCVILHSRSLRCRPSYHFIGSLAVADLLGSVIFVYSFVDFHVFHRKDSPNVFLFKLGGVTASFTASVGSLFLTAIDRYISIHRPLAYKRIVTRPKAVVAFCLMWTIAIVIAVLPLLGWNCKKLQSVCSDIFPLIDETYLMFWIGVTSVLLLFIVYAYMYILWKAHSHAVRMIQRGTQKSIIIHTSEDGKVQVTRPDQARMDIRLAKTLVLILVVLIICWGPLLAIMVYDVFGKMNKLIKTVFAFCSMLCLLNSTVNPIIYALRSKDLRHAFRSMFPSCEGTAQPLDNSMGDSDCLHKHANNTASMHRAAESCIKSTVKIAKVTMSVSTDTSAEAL

Work on `CCCCCCC(C)(C)c1ccc([C@@H]2C[C@@H](O)CC[C@H]2CCCO)c(O)c1` [CP55940, (-)-3-[2-hydroxyl-4-(1,1-dimethylheptyl)phenyl]-4-[3-hydroxylpropyl] cyclohexan-1-ol] yielded an EC50 of 3.11 nM.
